Laboratory results taken from patent US6699681B2, “Endothelin converting enzymes and the amyloid β peptide” (Mayo Foundation for Medical Education and Research, priority 2000, dated 2004).
Entries after “also recorded” stand apart in the source; their conditions may differ.

Tests used:
[1] = test system: CHO cells; test: Aβ in conditioned medium of CHO cells (lack ECE activity) treated with phosphoramidon; format: cell-based, hamster; details: non-transfected CHO cells; high concentrations of phosphoramidon
Method: (§1) Human and guinea pig Aβ40 or Aβ42 was measured in plasma by sandwich ELISA as previously described (Suzuki et al., 1994, Science, 264:1336-1340) using the BAN-50/BA-27 or BAN-50/BC-05 antibody systems, respectively (Takeda; Japan). Hamster Aβ40- or Aβ42-derived from CHO cells was measured using the BNT-77/BA-27 or BNT-77/BC-05 antibody systems, respectively. Aβ concentration in samples was determined by comparison to synthetic Aβ40 or Aβ42 standards (Bachem, Switzerland). Data was obtained from triplicate wells.
(§2) In particular, the sandwich ELISA used herein was performed as follows: 96-well microtiter plates were coated overnight at 4° C. with 100 μl of a 5 μg/ml dilution of primary antibody in sodium carbonate coating buffer (SCCB; 0.1 M Na2CO3, pH 9.6). […] Plates were read at 450 nm in a SpectraMax Plus spectrophotometer (Molecular Devices; Sunnyvale, Calif.) and analyzed by SOFTmax® PRO software. Aβ40 or Aβ42 were quantitated by comparison with the values obtained for each synthetic Aβ standard from the same plate.
Cells were passaged into 6-well plates one day prior to treatment and grown to confluence. […] After treatment, the culture medium was harvested, spun at 14,000 xg, and the supernatant analyzed for Aβ40 or Aβ42 using sandwich ELISA and for secreted APP using Western blot. […]

[2] = test system: ECE-transfected CHO cells; test: Removal of synthetic Aβ40 spiked into culture medium of ECE-transfected CHO cells; format: cell-based, hamster
Method: as §1, §2
To determine whether extracellular removal of Aβ accounted, at least in part, for the dramatic decrease in extracellular Aβ concentration in ECE-transfected cell lines, synthetic Aβ40 was spiked into the culture medium in the presence or absence of phosphoramidon and the amount of unhydrolyzed Aβ was determined at 6 or 24 hrs by sandwich ELISA. […]

[3] = target: T1, SolECE-1 (Homo sapiens, UniProt P42892); test: Inhibition of Aβ degradation by SolECE-1, sandwich ELISA; format: biochemical; details: inhibitor pre-incubated 15 min; phosphoramidon 150 μM; 24 hrs at 37° C.
T1 construct: a recombinant soluble form of ECE was generated (SolECE-1); made in house
T1 sequence (P42892 90-770 limits assumed): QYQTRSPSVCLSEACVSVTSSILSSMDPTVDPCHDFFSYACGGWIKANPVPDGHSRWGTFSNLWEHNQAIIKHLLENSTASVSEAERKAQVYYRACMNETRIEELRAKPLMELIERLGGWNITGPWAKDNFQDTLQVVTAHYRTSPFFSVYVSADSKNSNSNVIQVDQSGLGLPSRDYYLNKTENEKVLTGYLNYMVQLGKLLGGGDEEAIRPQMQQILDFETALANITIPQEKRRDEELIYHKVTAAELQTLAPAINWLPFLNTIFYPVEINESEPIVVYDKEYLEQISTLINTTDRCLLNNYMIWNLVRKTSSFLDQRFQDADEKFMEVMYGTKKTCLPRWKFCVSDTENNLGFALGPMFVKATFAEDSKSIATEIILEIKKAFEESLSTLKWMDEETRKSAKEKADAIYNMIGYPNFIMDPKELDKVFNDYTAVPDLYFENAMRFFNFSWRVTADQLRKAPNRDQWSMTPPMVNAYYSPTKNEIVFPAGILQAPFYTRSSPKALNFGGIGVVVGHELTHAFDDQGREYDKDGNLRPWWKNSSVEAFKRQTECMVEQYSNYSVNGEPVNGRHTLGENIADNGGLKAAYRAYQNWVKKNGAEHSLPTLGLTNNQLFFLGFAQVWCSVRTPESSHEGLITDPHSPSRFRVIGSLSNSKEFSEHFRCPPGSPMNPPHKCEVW
Method: SolECE-1 (approximately 0.2 μM) was pre-incubated for 15 min at room temperature with the ECE inhibitors PD069185 (synthesized according to published methods (Ahn et al., 1998, Biochem. Biophys. Res. Comm., 243:184-190) by the Mayo Clinic Organic Chemistry Core Facility, Jacksonville, Fla.) or phosphoramidon (150 μM), or an equal volume of vehicle (DMSO or PBS, respectively) prior to incubation with synthetic Aβ40 or Aβ42 (0.01 μM) in 50 mM MES (pH 6.5) containing 0.01% C12E10, 1 mM PMSF, 100 μM leupeptin, and 20 μM pepstatin. As a control, Aβ was incubated with Ni-NTA purified proteins from non-transfected CHO cells, or in reaction buffer alone. Following incubation for 24 hrs at 37° C., the reactions were stopped by the addition of 5 mM EDTA. Aβ concentration was then analyzed using a highly specific sandwich ELISA that captures Aβ via binding of antibody BAN-50 to the N-terminus, and detects only full-length Aβ peptides ending at residue 40 (using antibody BA-27) or 42 (using antibody BC-05). Thus, Aβ that has been further hydrolyzed will not be detected using this assay.

block of the SolECE-1-induced reduction of Aβ40 and Aβ42 [3]: completely blocked
Compound: CC(C)C[C@H](NP(=O)(O)O[C@@H]1O[C@@H](C)[C@H](O)[C@@H](O)[C@H]1O)C(=O)N[C@@H](Cc1c[nH]c2ccccc12)C(=O)O [phosphoramidon]
concentration of Aβ in the conditioned medium [1]: did not affect; also recorded: unaffected
extracellular concentration of synthetic Aβ ([2]; 6 hr incubation, ECE-transfected and untransfected CHO cells, spiked synthetic Aβ40): not affected
ECE-1a-induced increase in Aβ removal ([2]; 24 hr, ECE-1a-transfected CHO cells treated with phosphoramidon): completely attenuated
